# The source made the active and inactive calls.
# Experiments:
# Cytochrome P450 3A4 = Cytochrome P450 3A4 (Homo sapiens, UniProt P08684); conditions: Potency;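 also: confirmatory qHTS run detecting inhibitors and substrates of CYP3A4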
# [1] = molecular target: T1, Short transient receptor potential channel 4 (Mus musculus, UniProt Q9QUQ5); assay: mouse TRPC4 channel activators, dose response, cell-based, HEK293 TRPC4/mu-opioid, Fluo-4 calcium (AID 434937); assay type: functional
# T1 sequence (Q9QUQ5 whole entry): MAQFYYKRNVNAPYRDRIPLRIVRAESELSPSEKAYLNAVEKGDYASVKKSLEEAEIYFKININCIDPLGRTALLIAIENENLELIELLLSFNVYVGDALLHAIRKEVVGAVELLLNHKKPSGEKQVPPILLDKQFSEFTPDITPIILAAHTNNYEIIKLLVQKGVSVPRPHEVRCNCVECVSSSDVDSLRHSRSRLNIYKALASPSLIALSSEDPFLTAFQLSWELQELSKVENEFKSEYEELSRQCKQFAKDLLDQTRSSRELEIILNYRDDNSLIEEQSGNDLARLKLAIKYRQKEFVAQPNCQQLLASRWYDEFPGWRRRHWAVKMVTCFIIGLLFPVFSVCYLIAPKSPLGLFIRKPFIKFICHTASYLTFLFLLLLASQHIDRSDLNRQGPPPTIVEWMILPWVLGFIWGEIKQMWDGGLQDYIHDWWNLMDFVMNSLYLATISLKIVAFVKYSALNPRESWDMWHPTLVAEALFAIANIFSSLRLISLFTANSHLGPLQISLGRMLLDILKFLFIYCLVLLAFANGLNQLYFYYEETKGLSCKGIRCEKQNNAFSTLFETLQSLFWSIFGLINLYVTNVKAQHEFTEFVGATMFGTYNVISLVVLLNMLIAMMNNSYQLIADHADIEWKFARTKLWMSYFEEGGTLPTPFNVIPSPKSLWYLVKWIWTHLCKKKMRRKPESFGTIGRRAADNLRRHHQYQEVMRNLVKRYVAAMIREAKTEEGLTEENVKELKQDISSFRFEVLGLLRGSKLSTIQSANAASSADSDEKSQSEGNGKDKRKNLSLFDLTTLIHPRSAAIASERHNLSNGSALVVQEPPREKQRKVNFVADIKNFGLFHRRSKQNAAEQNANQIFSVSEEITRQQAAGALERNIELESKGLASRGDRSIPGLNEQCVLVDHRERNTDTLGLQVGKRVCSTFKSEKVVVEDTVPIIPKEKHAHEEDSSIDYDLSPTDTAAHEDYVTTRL
# Kallikrein-7 = Kallikrein-7 (Homo sapiens, UniProt P49862); assay: Fluorescence Intensity-based biochemical primary high throughput dose response assay to identify activators of kallikrein-7 (K7) zymogen.
# Chain of Kallikrein-7 (P49862 whole entry): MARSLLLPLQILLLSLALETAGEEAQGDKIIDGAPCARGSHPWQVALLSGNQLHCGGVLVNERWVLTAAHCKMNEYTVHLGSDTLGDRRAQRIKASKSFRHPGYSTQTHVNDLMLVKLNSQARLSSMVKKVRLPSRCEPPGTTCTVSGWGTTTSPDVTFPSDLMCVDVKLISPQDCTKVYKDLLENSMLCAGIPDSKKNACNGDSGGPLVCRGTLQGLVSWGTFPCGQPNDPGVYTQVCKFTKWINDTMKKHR
# [2] = A cytotoxicity screen of small molecule inhibitors of the PhoP region in Salmonella typhi identified in the primary screen. [Related pubchem assays: 1850, 1864, 1985 ]; assay type: functional
# [3] = molecular target: Voltage-dependent T-type calcium channel subunit alpha-1H (Homo sapiens, UniProt O95180); assay type: functional;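 also: channel activity triggered by adding a high calcium stimulation buffer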
# Chain of Voltage-dependent T-type calcium channel subunit alpha-1H (O95180 whole entry): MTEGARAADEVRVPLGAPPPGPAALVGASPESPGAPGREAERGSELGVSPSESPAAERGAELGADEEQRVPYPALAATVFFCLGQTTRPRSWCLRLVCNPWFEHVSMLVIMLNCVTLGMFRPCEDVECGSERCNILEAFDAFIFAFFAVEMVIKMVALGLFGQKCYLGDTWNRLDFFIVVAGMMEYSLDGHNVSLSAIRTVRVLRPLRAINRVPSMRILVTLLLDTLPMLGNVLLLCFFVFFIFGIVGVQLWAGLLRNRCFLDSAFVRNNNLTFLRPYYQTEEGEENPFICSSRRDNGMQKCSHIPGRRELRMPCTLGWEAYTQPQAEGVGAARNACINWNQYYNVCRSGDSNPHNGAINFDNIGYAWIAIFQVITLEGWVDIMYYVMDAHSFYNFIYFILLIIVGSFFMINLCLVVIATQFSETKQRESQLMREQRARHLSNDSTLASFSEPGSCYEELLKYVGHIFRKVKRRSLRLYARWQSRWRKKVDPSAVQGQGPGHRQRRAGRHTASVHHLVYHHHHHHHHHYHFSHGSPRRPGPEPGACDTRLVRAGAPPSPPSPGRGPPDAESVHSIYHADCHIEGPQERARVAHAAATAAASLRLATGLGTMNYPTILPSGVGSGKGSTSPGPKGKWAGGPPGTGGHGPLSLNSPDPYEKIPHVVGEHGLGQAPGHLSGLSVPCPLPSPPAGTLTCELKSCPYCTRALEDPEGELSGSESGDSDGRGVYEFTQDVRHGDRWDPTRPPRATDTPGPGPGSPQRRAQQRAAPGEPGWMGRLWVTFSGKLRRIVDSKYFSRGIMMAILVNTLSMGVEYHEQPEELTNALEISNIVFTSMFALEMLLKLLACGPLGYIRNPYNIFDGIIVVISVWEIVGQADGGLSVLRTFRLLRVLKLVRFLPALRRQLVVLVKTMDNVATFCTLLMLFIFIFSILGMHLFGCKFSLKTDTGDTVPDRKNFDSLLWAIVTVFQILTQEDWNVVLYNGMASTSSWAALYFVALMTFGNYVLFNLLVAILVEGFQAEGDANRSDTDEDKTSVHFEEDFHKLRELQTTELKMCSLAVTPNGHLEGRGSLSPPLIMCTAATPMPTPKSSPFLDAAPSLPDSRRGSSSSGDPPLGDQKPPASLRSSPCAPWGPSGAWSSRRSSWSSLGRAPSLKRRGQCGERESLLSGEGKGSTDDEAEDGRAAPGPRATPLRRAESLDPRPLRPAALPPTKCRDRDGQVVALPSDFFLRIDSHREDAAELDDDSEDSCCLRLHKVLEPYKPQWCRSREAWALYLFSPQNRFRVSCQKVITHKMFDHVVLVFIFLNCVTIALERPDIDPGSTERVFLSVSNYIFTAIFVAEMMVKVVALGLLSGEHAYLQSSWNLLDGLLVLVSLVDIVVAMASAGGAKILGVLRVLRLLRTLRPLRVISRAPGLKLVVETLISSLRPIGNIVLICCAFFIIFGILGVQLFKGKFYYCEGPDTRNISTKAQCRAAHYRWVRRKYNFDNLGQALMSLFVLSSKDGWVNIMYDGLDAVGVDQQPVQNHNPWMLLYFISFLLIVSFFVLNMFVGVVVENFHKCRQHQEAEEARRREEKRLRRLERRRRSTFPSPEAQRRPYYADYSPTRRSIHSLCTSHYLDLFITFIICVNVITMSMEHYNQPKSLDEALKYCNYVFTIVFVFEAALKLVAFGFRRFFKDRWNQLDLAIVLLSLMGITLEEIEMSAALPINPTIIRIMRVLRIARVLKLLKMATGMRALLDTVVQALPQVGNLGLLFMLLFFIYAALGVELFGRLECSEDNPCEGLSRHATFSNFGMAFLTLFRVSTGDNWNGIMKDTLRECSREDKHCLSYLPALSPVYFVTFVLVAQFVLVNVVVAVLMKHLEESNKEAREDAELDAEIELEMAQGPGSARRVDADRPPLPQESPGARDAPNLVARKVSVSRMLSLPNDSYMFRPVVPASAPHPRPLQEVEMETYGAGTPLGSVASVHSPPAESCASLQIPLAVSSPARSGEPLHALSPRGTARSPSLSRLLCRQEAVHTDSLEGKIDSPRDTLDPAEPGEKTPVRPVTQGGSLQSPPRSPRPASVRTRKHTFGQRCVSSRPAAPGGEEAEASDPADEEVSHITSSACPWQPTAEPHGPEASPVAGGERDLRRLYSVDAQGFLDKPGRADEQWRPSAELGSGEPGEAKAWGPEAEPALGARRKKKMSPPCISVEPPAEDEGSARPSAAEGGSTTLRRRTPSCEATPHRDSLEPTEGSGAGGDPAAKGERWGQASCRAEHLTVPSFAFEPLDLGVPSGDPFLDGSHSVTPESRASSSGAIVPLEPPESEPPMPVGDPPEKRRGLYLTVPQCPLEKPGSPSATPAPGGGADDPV
# Aminopeptidase N = molecular target: T2, Aminopeptidase N (Plasmodium falciparum FcB1/Columbia, UniProt O96935); assay: P. falciparum M1AAP inhibitors, biochemical, fluorogenic H-Leu-NHMec substrate, 1536-well (AID 1445); parameters: species or system Plasmodium falciparum 3D7, 3D7
# T2 sequence (O96935 whole entry): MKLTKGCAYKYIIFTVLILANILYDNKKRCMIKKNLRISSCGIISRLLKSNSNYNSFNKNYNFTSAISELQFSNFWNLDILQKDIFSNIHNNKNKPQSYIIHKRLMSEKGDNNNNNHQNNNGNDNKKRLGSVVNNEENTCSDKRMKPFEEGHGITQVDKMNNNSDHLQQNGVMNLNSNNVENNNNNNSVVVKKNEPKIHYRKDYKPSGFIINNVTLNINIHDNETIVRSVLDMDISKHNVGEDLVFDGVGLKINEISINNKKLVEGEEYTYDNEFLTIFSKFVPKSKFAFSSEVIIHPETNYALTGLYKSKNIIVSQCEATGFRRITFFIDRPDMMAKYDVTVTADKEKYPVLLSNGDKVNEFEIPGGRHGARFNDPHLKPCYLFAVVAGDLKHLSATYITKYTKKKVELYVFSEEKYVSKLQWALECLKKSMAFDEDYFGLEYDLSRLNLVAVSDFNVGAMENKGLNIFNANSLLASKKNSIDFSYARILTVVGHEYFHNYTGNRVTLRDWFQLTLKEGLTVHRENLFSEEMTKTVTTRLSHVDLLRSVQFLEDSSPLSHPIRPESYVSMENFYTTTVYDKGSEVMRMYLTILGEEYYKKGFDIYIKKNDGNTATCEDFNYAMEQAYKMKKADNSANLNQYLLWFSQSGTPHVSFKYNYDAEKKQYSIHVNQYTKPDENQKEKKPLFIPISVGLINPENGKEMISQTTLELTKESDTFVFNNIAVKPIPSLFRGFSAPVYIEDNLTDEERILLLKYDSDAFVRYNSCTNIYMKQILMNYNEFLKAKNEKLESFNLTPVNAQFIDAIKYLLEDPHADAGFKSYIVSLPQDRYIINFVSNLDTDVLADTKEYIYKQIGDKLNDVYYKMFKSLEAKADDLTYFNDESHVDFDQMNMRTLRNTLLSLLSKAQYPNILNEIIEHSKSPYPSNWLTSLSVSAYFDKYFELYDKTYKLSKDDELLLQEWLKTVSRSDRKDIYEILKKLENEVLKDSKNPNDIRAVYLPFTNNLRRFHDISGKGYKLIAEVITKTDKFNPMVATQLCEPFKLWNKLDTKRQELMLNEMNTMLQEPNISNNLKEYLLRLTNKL
# [4] = molecular target: T3, Corticotropin-releasing factor receptor 2/Corticotropin-releasing factor-binding protein (Homo sapiens, UniProt P24387+Q13324); assay: Dose Response confirmation of uHTS hits for small molecule antagonists of the CRF-binding protein and CRF-R2 receptor complex.; assay type: functional; conditions: read-out: IC50_Mean
# T3 sequence (Q13324 whole entry): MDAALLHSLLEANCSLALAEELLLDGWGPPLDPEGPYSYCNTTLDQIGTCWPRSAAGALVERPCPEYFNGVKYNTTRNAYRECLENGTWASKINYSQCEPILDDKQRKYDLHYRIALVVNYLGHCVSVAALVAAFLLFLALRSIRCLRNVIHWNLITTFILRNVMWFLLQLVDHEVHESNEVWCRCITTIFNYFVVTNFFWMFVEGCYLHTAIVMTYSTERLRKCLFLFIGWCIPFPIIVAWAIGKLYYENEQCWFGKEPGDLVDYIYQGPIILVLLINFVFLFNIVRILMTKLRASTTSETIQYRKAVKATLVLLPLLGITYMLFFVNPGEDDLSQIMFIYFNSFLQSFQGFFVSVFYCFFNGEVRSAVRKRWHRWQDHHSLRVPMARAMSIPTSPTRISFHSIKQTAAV
# T3 sequence (P24387 whole entry): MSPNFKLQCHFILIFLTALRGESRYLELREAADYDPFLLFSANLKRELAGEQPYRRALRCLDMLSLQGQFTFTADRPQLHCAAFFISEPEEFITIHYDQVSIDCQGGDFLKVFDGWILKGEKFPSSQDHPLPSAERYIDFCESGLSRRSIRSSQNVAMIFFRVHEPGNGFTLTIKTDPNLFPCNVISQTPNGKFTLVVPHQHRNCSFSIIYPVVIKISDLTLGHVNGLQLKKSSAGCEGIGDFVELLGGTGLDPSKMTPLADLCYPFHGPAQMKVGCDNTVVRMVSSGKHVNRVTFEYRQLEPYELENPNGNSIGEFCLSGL
# [5] = molecular target: T3, Corticotropin-releasing factor receptor 2/Corticotropin-releasing factor-binding protein; assay: activators of CRF receptor 2 with binding protein – uHTS hits, confirmation (AID 602473); assay type: functional; conditions: read-out: EC50_Mean
# [6] = CRF-BP/CRF-R2 complex antagonists, dose response, cell-based, uHTS hits, 384-well (AID 651639); assay type: functional, Homo sapiens; conditions: read-out: IC50_Mean
# [7] = molecular target: Eukaryotic translation initiation factor 4E (Mus musculus, UniProt P63073); assay: eIF4E–eIF4G protein interaction inhibitors, dose response, biochemical, TR-FRET (AID 855); assay type: functional;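 also: potency for disrupting eIF4E binding to eIF4GI seen as loss of FRET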
# Chain of Eukaryotic translation initiation factor 4E (P63073 whole entry): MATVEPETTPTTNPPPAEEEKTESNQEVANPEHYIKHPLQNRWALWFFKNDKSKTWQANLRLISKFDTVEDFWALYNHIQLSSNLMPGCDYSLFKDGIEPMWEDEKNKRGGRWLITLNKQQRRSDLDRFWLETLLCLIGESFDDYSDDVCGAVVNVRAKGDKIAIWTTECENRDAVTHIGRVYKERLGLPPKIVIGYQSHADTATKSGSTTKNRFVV
# [8] = molecular target: T4, Polyadenylate-binding protein 1 (Homo sapiens, UniProt P11940); assay: PABP1 MLLE–PAM2 interaction inhibitors, dose response, miRNA deadenylation inhibitor project, biochemical, fluorescence polarization, Cy5-PAM2 peptide, secondary (AID 602260); assay type: functional; conditions: read-out: IC50_Mean
# T4 sequence (P11940 whole entry): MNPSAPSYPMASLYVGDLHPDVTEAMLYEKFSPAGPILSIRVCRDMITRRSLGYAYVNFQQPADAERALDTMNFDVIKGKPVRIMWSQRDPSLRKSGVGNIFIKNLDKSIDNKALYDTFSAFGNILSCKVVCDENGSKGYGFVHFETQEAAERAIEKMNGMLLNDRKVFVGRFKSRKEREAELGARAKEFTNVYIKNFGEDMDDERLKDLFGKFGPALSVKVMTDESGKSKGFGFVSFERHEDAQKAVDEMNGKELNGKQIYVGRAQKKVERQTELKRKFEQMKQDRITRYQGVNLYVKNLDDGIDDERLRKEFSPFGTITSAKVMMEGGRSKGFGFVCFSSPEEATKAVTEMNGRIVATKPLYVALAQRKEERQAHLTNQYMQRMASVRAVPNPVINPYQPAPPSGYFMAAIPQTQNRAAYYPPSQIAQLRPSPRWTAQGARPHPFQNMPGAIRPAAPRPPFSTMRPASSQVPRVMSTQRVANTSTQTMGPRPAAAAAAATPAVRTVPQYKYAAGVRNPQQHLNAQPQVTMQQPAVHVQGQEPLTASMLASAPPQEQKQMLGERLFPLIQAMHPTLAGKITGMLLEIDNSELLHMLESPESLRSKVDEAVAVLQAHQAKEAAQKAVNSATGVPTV
# [9] = molecular target: T4, Polyadenylate-binding protein 1; assay: PABP1 MLLE–PAM2 binding inhibitor potency, dose response, biochemical, fluorescence polarization, FITC-PAM2 peptide (AID 602259); assay type: functional; conditions: read-out: IC50_Mean
# Paired box protein Pax-8 = Paired box protein Pax-8 (Homo sapiens, UniProt Q06710); assay: inhibitors of PAX8-driven TPO luciferase reporter, dose response, RMG-I cells, cherry-pick (AID 687027); assay type: functional, cell-based;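 also: luciferase reporter driven by Pax8 target thyroperoxidase promoter measured by SteadyGlo luminescence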
# Chain of Paired box protein Pax-8 (Q06710 whole entry): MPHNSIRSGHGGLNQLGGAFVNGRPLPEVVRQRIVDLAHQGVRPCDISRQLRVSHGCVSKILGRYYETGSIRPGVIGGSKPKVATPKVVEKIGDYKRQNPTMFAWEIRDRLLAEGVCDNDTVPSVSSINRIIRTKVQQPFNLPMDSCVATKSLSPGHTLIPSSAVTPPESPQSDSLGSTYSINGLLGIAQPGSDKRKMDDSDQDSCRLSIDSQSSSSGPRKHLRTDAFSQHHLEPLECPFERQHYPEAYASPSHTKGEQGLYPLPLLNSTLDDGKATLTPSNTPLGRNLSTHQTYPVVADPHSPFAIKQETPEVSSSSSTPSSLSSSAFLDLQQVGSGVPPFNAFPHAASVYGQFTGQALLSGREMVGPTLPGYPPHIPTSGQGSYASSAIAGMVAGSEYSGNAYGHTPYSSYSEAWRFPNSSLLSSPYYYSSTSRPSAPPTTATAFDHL
# [10] = NIH:OVCAR-3 ovarian cancer cell cytotoxicity, dose response, PAX8 inhibitor project, plate reader, dry powder samples (AID 743044); assay type: functional, cell-based
# [11] = cytotoxicity in OVCAR8 ovarian cancer cells, dose response, PAX8 project, cell-based, plate reader, dry powder samples (AID 743197); assay type: functional; conditions: OVCAR-8
# [12] = Shn3 3'UTR reporter inhibitors, dose response, cell-based, Clone20 osteoblasts, firefly luciferase, cherry-picked (AID 624132); assay type: functional;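 also: firefly luciferase luminescence from reporter carrying the Shn3 3'UTR in osteoblasts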
# [13] = HepG2 cell cytotoxicity, dose response, cytotoxicity control for Shn3 inhibitor project, CellTiter-Glo, cherry-picked (AID 624134); assay type: functional, cell-based
# [14] = control 3'UTR Renilla luciferase suppression, dose response, counter-screen for Shn3 inhibitor project, cell-based, Clone20-Shn3RL, cherry-picked (AID 624133); assay type: functional
# Chain of Cytochrome P450 3A4 (P08684 whole entry): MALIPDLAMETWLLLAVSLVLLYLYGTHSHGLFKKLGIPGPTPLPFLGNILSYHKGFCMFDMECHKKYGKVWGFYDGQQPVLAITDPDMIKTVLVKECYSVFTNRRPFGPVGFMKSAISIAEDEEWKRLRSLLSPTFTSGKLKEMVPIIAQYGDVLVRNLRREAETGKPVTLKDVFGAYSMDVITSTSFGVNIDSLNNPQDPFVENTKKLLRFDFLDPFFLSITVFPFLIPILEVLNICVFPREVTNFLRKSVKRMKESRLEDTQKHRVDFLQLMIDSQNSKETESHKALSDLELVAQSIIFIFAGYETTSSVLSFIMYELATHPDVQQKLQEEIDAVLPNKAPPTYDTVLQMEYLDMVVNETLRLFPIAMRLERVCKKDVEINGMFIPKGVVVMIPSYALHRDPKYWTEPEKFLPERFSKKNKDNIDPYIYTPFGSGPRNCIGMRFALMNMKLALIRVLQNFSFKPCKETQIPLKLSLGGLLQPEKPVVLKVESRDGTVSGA
compound,measurement,setting,value
C[C@@H]1O[C@@H](O[C@@H]2[C@@H](O)[C@H](OCCc3ccc(O)c(O)c3)O[C@H](CO[C@@H]3O[C@H](CO)[C@@H](O)[C@H](O)[C@H]3O)[C@H]2OC(=O)/C=C/c2ccc(O)c(O)c2)[C@H](O)[C@H](O)[C@H]1O,AC50,Cytochrome P450 3A4,7.94 µM (inconclusive)
Cc1oc(-c2ccccc2Cl)nc1C[S+]([O-])CC(=O)NCCCN1CC(C)CC(C)C1 (centres undefined),EC50,[1],0.299 µM (active)
CCOC(=O)C1CCN(c2[nH]cnc3c4c(OC)cccc4nc2-3)CC1,EC50,Kallikrein-7,8.33 µM (active)
c1ccc2sc(N3CN(CCN4CCOCC4)CN(c4nc5ccccc5s4)C3)nc2c1,EC50,[2],> 50 µM (active)
same,EC50,[3],5.23 µM (active)
CC(C)N1C(=O)S/C(=C/c2ccccc2OCc2ccc(C(=O)O)cc2)C1=O,IC50,Aminopeptidase N,38.1 µM (active)
same,IC50,[4],25.5 µM (active)
same,EC50,[5],> 53 µM (inactive)
same,IC50,[6],> 20 µM (inactive)
CC1(C(=O)NCCN2CCOCC2)C=CCN1C(=O)c1ccccc1 (centres undefined),AC50,Cytochrome P450 3A4,25.1 µM (inconclusive)
CCCC(=O)Nc1c(-c2ccc(OC)cc2)c(=O)c2ccccc2n1C,EC50,Kallikrein-7,49.5 µM (inactive)
Cc1cc(C)n(-c2nnc3n2N=C(c2ccccc2)CS3)n1,IC50,[7],> 64 µM (inactive)
Cc1ccc(-c2nnn(C(C)C(=O)N3c4ccccc4CCc4ccccc43)n2)cc1 (centres undefined),EC50,[3],7.47 µM (active)
CN1C=CC2=C(C#N)C(N)C(C#N)(C#N)[C@H](c3ccccc3)[C@H]2C1 (some centres undefined),IC50,[8],> 66 µM (inactive)
same,IC50,[9],58.9 µM (inactive)
same,EC50,Kallikrein-7,> 69.5 µM (inactive)
O=C(Nc1ccccc1)N1CCCCN2[C@H](C1)[C@@H](c1ccc(C#Cc3ccccc3)cc1)[C@@H]2CO,AC50,Paired box protein Pax-8,10.5 µM (active)
same,AC50,[10],26 µM (active)
same,AC50,[11],26 µM (active)
CCC(CC)CC1CN2CCc3cc(OC)c(OC)cc3C2CC1(O)CC (centres undefined),AC50,[12],2 µM (active)
same,AC50,[13],> 70 µM (inactive)
same,AC50,[14],3.89 µM (active)
same,EC50,Kallikrein-7,8.32 µM (active)
CC1=C(C#N)C(c2cccnc2)C2=C(O)CC(C)(C)CC2=N1 (centres undefined),EC50,Kallikrein-7,> 69.5 µM (inactive)

# Source: ChEMBL document CHEMBL1201862, “PubChem BioAssay data set” (2004)
